The text below walks through data of patent US8101410B2 (Entelechon GmbH, priority 2005, dated 2012).

Like-named read-outs stand apart in the source and are kept apart here. A value given as a limit tells only on which side of the number the result lay.

For data set [1], the system named is Brassica juncea cv. Varuna wild type seeds/seedlings. The protocol: (§1) T2 seeds of various independent homozygous transgenic lines of Brassica juncea cv. […] Homozygous transgenic genotypes were identified based on 100 percent germination of T2 seed of various independent transformed lines in the presence of 50 mg/l kanamycin.
Data set [2] concerns Nicotiana tabacum cv. Petit Havana SR1 shoots. As for the experimental part:
In one set of experiments uniformly looking ˜1 cm long shoots were taken while in a second set of experiments a bunch of 6-8 shoots were used.
For this purpose, shoots of Nicotiana tabacum cv. Petit Havana SR1 were obtained by multiplying the shoots regenerated from the leaf segments on MS medium supplemented with 2 mg/l BAP.

For data set [3], the system named is Brassica juncea cv. Varuna explants (wild type).
Another data set relates to Brassica juncea L. The settings on record: Present Investigations.
The test system of data set [4] is shoots of codAps transgenic lines A, B, D and E of Brassica juncea cv. Varuna. The text has this:
The codA gene was isolated in the inventors' laboratory from local strain of Arthrobacter globiformis (GenBank accession number AY589052, hereafter referred as codAps gene) and cloned into pPZP200lox(npt 11) vector (obtained from Dr. Deepak Pental, Department of Genetics, South Campus, University of Delhi, New Delhi, India). The resultant vector named as pSG was electroporated into Agrobacterium tumefaciens strain GV3101. Hypocotyl and cotyledonary petiolar explants were excised from 6 d old sterile seedlings were transformed using Agrobacterium tumefaciens strain GV3101/pSG/codAps.

The test system of data set [5] is Brassica juncea wild type shoots.
For data set [6], the system named is Nicotiana tabacum L. To be noted: Present Investigations.
Data set [7] has as its system homozygous codAps transgenic lines A, B, D and E of Brassica juncea cv. Varuna seeds/seedlings. The settings on record: for seedling growth: transgenic lines. The protocol: as §1
For these studies seeds from four homozygous transgenic lines (lines A, B, D and E) of T2 generation were used. The homozygous genotypes were identified based on 100 percent germination of seed in the presence of 50 mg/l kanamycin (i.e. otherwise lethal to wild type/non-transgenic lines).

The subject of data set [8] is plant cells. To be noted: Table 2, choline, present investigations.
Data set [9] deals with wild type/non-transgenic lines of Brassica juncea cv. Varuna. Kind of data set: Seed germination in the presence of kanamycin. The data set is classed as in vivo.
For data set [10], the system named is plant cells. To be noted: Table 2, range over plant species, literature; cited from earlier work.
The subject of another data set is Solanum tuberosum L. The settings on record: Haldrup et al. (1998); cited from earlier work.
The subject of data set [11] is Nicotiana tabacum L. The settings on record: Haldrup et al. (1998); cited from earlier work.
Data set [12] relates to Lycopersicon esculentum L. The settings on record: Haldrup et al. (1998); cited from earlier work.
[13] abbreviates: lower concentrations of choline, shoot induction medium.
Where [14] appears, read: 60 mM choline, transgenic lines.

With `C[N+](C)(C)CCO.[Cl-]` [Choline, choline chloride], the “fresh weight of seedlings, lower than those raised in absence of choline” value in data set [1] (40 mM choline, MGM, 30 d) is given as 90%. For the same compound, the “seed germination and early seedling growth” value in data set [1] (MGM (half strength MS without sucrose/organics) with choline) was “significantly curtailed”. The “percent seed germination as well as seedling growth” value in data set [1] (MS medium supplemented with choline (20, 40 mM)) is “suppressed significantly”. In addition, the seed germination result in [1] (MS medium, 40 mM choline) is “almost no/little seed germination”; in data set [7] (transgenic lines A, B, D, E, MS medium, all concentrations of choline tested (20, 40 mM)), 100%. Further, the “time to loss of green pigmentation followed by senescence/death after inoculation” value in [2] (40 mM choline) was not above 7 days. Besides, the shoot growth entry in data set [2] (MS medium with choline chloride 20 and 40 mM) is listed as “significantly curtailed shoot growth”. For the same compound, in data set [3] (40 mM choline), the “cotyledonary explants that lost green pigmentation completely” value is approximately 100%. Besides, the cultures exhibiting callogenesis in data set [3] (40 mM choline) is 100%. Also, the “shoot induction (caulogenesis) from hypocotyl and cotyledonary petiolar explants” value in data set [3] (choline chloride 10, 20, 30, 40 mM in shoot induction medium (MS + BAP, NAA, AgNO3), 20 d) is reported as “suppressed shoot induction”. Further, the “expansion of the cotyledonary leaves of cotyledonary petiolar explants” value in [3] (choline in shoot induction medium, effect increases with concentration) is on record as “significantly curtailed the expansion of the cotyledonary leaves”. Besides, the “callogenesis i.e. callus induction” value in [3] (setting [13]) was “did not cause any significant alteration in callogenesis”. Also, the rhizogenesis entry in data set [3] (setting [13]) is reported as “promoted rhizogenesis”. Further, the Selection concentration in the data set on Brassica juncea L., in the data set on Nicotiana tabacum L. [6] and in the data set on plant cells [8] was 5584 mg/L throughout. Moreover, the “growth of the shoots” value in [4] (40 mM choline, transgenic lines) is “no significant alteration in the growth”. For the same compound, the green pigmentation result in data set [4] (setting [14]) is “no loss in green pigmentation”. The growth of shoots result was “suppression in the growth” in data set [4] (setting [14]) and “significantly curtailed the growth of shoots” in data set [5] (MS medium with choline chloride 5-60 mM, wild type). Further, the “choline concentration that shoots were able to withstand” value in data set [4] (transgenic lines A, B, D, E, MS medium) was not above 60 mM. Moreover, the “time to death of shoots after inoculation” value in data set [5] (choline 20 mM and above, wild type shoots) is not above 15 days. Further, the “choline concentration giving loss in green pigmentation followed by browning/senescence leading to death” value in data set [5] (wild type shoots, MS medium) is on record as not below 20 mM. Also, in data set [7] (four independent transgenic lines, 40 mM choline, MGM, 30 d), the “fresh weight of seedlings, lower than respective controls” value is recorded as 25-30%. The “seed germination and seedling growth” value in [7] (transgenic lines A, B, D, E, MGM, 40 mM choline vs 20 mM) was “delay in seed germination as well as reduction in seedling growth”. The seedling growth result in data set [7] (MS medium, 20 mM choline and below) is “comparable to those grown in the absence of choline”; in [7] (MS medium, 40 mM choline), “significant reduction in seedling growth”.
Consider `NC[C@H]1O[C@H](O[C@H]2[C@H](O)[C@@H](O[C@H]3O[C@H](CO)[C@@H](O)[C@H](N)[C@H]3O)[C@H](N)C[C@@H]2N)[C@H](O)[C@@H](O)[C@@H]1O` [Kanamycin], for which, in [9], the “kanamycin concentration lethal to wild type/non-transgenic lines” value was 50 mg/L.
Consider `CP(=O)(O)CC[C@H](N)C(=O)O` [Phosphinothricin], for which the Selection concentration in the data set on plant cells [10] is 5 to 10 mg/L.
As to `O=C[C@H](O)[C@@H](O)[C@H](O)CO` [Xylose], the Selection concentration was 3750 mg/L with Solanum tuberosum L., 20000 mg/L in the data set with Nicotiana tabacum L. [11], 15000 mg/L in data set [12] and 3750 to 20000 mg/L with plant cells [10].
Consider `[Cl-].[K+]` [potassium chloride, reference compound], for which the shoot induction entry in data set [3] (potassium chloride 10, 20, 30, 40 mM in place of choline chloride) is “no significant alteration”. For the same compound, the “expansion of cotyledons and/or green pigmentation” value in data set [3] (potassium chloride at highest concentration (40 mM)) is reported as “did not cause any suppression in the expansion of cotyledons and/or alteration in green pigmentation”.
